Results on one compound are retold here after article PMC11684029, “Discovery of VU6024578/BI02982816: An mGlu1 Positive Allosteric Modulator with Efficacy in Preclinical Antipsychotic and Cognition Models” (Journal of Medicinal Chemistry, 2024).

Data set [1] relates to rats. Nature of the data set: rotarod. It is filed as in vivo. Particulars: rat, doses up to 10 mg/kg. The procedure:
(§1) In order to enable our target validation work, we first profiled PAM 19d in a rat locomotor battery to ensure that pharmacodynamic efficacy was not mistaken for gross effects on locomotion.[20] […] PK was performed in parallel to establish a PK/PD relationship.[24]
On the first day, the animals were placed on the rotarod apparatus which was rotating at a speed of 20 rpm. If the rats fall of the bar, the animals were placed back on the apparatus for a total of 2 min. On the day of testing, adult male rats were pretreated with VU6024578 (1–10 mg/kg) 65 min before being placed on the rotarod apparatus. Testing consisted of accelerating rotarod from 4 to 40 rpm over 5 min. The time and final speed when the rats fall off of the apparatus was recorded.
(In general: In the rotarod test animals must keep their balance on a rotating rod.)

In data set [2] the test system is Wistar rats. Kind of data set: qEEG telemetry recordings. It is filed as in vivo. Particulars: rat. The method, then:
These effects were most pronounced between 30 and 120 min post treatment (Figure 11C).
Data are expressed as mean ± SEM and were analyzed by one- and two-way ANOVA followed by Dunnett’s Multiple Comparisons tests (*p < 0.05, **p < 0.01, ***p < 0.001 versus vehicle).
Wistar rats using a telemetry system (Data Sciences International DSI, USA).[20] Telemetric transmitters (F40-EET, Data Sciences International DSI, USA) were implanted intraperitoneally into male Wistar rats. EEG electrodes were placed supradurally above the hippocampus and two more electrodes were implanted into the neck muscle in order to measure the electromyography (EMG) signal required for differentiation between different vigilance states. Telemetric EEG recordings were performed during the light phase in the rats’ home cage environment. EEG activity was sampled at 500 Hz with a hardware filter cutoff of 50 Hz. Data were recorded continuously for 24 h, but only 1 h before compound treatment (baseline), the first 4 h after compound treatment plus an additional hour (+24 h time point) have been analyzed. Effects of treatment with 19d (1, 10 mg/kg, p.o., n = 14, applied 2 h after starting the recording) were determined on motor activity, body temperature, vigilance states and EEG power spectra using the EEG analysis software NeuroScore (Data Sciences International DSI, USA). The rats were tested in a crossover study design with a two-day washout period between two treatments.[20]

Data set [3] has as its system C57Bl/6 mice. Nature of the data set: amphetamine-induced hyperlocomotion (mouse). Type of data set: in vivo. The method, then:
In parallel with the rat AHL study, we carried out a mouse AHL study to determine if the PK/PD relationship would remain intact across rodent species. Here, amphetamine was dosed to C57Bl/6 mice at 3 mg/kg s.c. to achieve ∼800 beam breaks, followed by the oral administration of 19d at 3, 10, and 30 mg/kg (Figure 8). […] Thus, mGlu1 has sufficient target coverage and PK/PD^24 is established for this paradigm in mouse and agree well with the PK/PD relationship established in rat for both NOR and AHL wherein free brain concentrations at or above the in vitro EC50 facilitates a significant pharmacodynamic response.
Figure 8 Mouse amphetamine-induced hyperlocomotion and reversal by VU6024578 (19d). Amphetamine (3.0 mg/kg s.c.) induced robust hyperlocomotion, which was dose-dependently reversed by oral administration (0.5% Natrasol/0.015% tween 80 in H2O) of 19d. TEXT PRINTED IN THE PICTURE: VU6024578-09: Mean % reversal: -7.7 ± 32.6 (3 mg/kg i.p. + Amphetamine 3 mg/kg s.c.); Mean % reversal: 84.2 ± 10.2 (10 mg/kg i.p. + Amphetamine 3 mg/kg s.c.); Mean % reversal: 90.0 ± 12.7 (30 mg/kg i.p. + Amphetamine 3 mg/kg s.c.)
Adult male C57/bl6 mice are placed in the activity chambers (Med Associates) to habituate. 90 min later the mice were administered VU6024578 (3–30 mg/kg i.p. Ten ml/kg) or vehicle (0.5% natrasol/0.015% Tween 80) and placed back in the activity chambers. Thirty minutes later the animals were administered Amphetamine (3 mg/kg) and placed back in the activity chambers for 1 h. The data for the studies were analyzed by a between-group 2 way analysis of variance for compound dose and time. Total ambulation from 125 to 180 min was analyzed by one-way ANOVA. Each dose group was compared with the vehicle control group. The calculations were performed and graphed using GraphPad Prism (version 4.03, GraphPad, La Jolla, CA).

Data set [4] can be described thus: plasma protein binding. Type of data set: in vitro ADME. The procedure:
The protein binding of each compound was determined in plasma via equilibrium dialysis employing RED Plates (ThermoFisher Scientific, Rochester, NY). Plasma was added to the 96 well plate containing test compound and mixed thoroughly for a final concentration of 5 μM. Subsequently, an aliquot of the plasma-compound mixture was transferred to the cis chamber (red) of the RED plate, with an phosphate buffer (25 mM, pH 7.4) in the trans chamber. The RED plate was sealed and incubated for 4 h at 37 °C with shaking. At completion, aliquots from each chamber were diluted 1:1 with either plasma (cis) or buffer (trans) and transferred to a new 96 well plate, at which time ice-cold acetonitrile containing internal standard (50 ng/mL carbamazepine) (2 volumes) was added to extract the matrices. The plate was centrifuged (3000 rcf, 10 min) and supernatants transferred and diluted 1:1 (supernatant: water) into a new 96 well plate, which was then sealed in preparation for LC/MS/MS analysis. Each compound was assayed in triplicate within the same 96-well plate. Fraction unbound was determined using the following equation [drawing 1]

Data set [5] in a line: rat PO PBL study. It is filed as in vivo. Particulars: 3 mg/kg PO. An excerpt: Thus, 19d was a stable chemical entity in vivo. […] Overall, the rat PK and CNS penetration was supportive of in vivo work and progression down the development flow-chart.
Data set [6] concerns Sprague–Dawley rats. Kind of data set: spontaneous locomotion. Type of data set: in vivo. Particulars: rat, doses up to 10 mg/kg p.o. The procedure:
as §1
Adult male Sprague–Dawley rats were administered VU6024578 (1–10 mg/kg p.o.) or vehicle and were tested in the […]. Seventy minutes later the animals were placed into the activity chambers (Med Associates) for 30 min.

The nature of data set [7]: predicted hepatic clearance. Type of data set: in vitro ADME, cyno. An excerpt: Across species, 19d had acceptable fraction unbound in both plasma (fu (plasma): 0.03 (human), 0.041 (rat), 0.025 (cyno), 0.039 (dog) and 0.056 (mouse)) and brain (fu (brain): 0.034 (rat) and 0.081 (mouse)).

Like-named read-outs stand apart in the source and are kept apart here.

`Cn1nc(-c2ccnn2C)cc1CNC(=O)c1cc(-c2ccco2)ccc1Cl` [Compound 19d, 2-Chloro-N-((1,2′-dimethyl-1H,2’H-[3,3′-bipyrazol]-5-yl)methyl)-5-(furan-2-yl)benzamide]: the rotarod entry in data set [1] is “lack of effect”. In addition, in data set [2] (10 mg/kg p.o.), the body temperature result is “no measurable changes”. Besides, the EEG power spectra entry in data set [2] (10 mg/kg p.o., 60 to 240 min post treatment) was “consistent reduction of delta, alpha and beta power”. In data set [2] (10 mg/kg p.o., maximum within first 120 min), the motor activity entry is recorded as “significantly increased”. Also, the “time spent in NREM and REM sleep” value in data set [2] (higher dose (10 mg/kg p.o.)) is recorded as “reduction”. In addition, in data set [2] (higher dose (10 mg/kg p.o.)), the “time spent in active and quiet wake states” value is listed as “significant increase”. The entries for the “reversal of AHL, in words” value in data set [3] (3 mg/kg), in data set [3] (10 mg/kg) and in data set [3] (30 mg/kg) were “no reversal”, “Full reversal” and “Full reversal”, respectively. Moreover, the entries for the “Mean % reversal of AHL” value in data set [3] (3 mg/kg i.p.), in data set [3] (10 mg/kg i.p.) and in data set [3] (30 mg/kg i.p.) were -7.7 ± 32.6%, 84.2 ± 10.2% and 90.0 ± 12.7%, respectively. Moreover, the fraction unbound at 4 h, 5 μM came to 0.025 in data set [4] (cynomolgus monkey, pH 7.4, read-out: fu (plasma), cyno); 0.039 in data set [4] (dog, pH 7.4, read-out: fu (plasma), dog); 0.056 in data set [4] (mouse, pH 7.4, read-out: fu (plasma), mouse). Moreover, in data set [5] (at Tmax), the “unbound brain concentration Br[unbound]” value was determined as 100 nM. The compound also came in with a Kp in data set [5] (brain, 15 min to 7 h) of approximately 0.5. Besides, the spontaneous locomotion result in data set [6] is listed as “lack of effect”. The “CLhep, cyno” value in data set [7] was 31 mL/min/kg.
